Key:
dairy cows = assay: Effect on milk production in dairy cows, treatments administered subcutaneously; type: in vivo; conditions: for Milk Production: 10-day treatment period, mean, saline control 22.2; for % increase over control: milk production, vs saline control
Method: In this test, treatments are administered using a Latin Square design using four cows. Each treatment period is 10 days, and the interval between treatments is 4 days.
There is a pre-treatment period of one week, at the end of which each cow receives an indwelling jugular catheter. Catheters are flushed daily with heparinized (500-1000 IU/ml) sterile saline to help maintain potency and are replaced as needed.
The drugs are solubilized in sterile saline and injected subcutaneously each day with the dosage based on the cow's weight. Dosages range from 0.06 mg/kg animal/day to 60 mg/kg animal/day, preferably 0.10 mg/kg animal/day to 50 mg/kg/day.
On the first and last treatment days of each period, blood is collected at 15 minute intervals for 1 hour prior to and 11/2 hours after treatment; sampling continues at 30 minutes intervals for an additional 31/2 hours.
Milk samples are obtained on the evening proceeding each bleeding day, the morning of each bleeding day and combined (50% each).
Feed intake, refusals and milk production is monitored for all animals.
Results obtained are reported as mean milk production in kg/day for each treatment and compared against a saline control.

Growth Hormone Release = assay: Peptide effects on growth hormone release, plasma GH by RIA in anesthetized male rats; type: in vivo, rat; conditions: for Plasma GH: 15 min
Method: In this evaluation, the procedures described by W. A. Murphy et al., Endocrinology 109:491-495 (1980), were employed.
In growth hormone (GH) experiments, male rats (Charles Rivers) were anesthetized with NEMBUTAL® (6 mg per 100 g body weight) which also served to maintain stimulated plasma GH levels. Exactly 30 minutes after the rats were anesthetized, 0.5 mL of saline or the test peptide in saline was administered as a SC bolus. A 1 mL blood sample was drawn from the jugular vein 15 minutes after the injection of the peptide in saline. GH levels were determined using NIADDKD rat GH RIA components.

CC[C@H](C)[C@H](NC(=O)[C@H](C)NC(=O)[C@H](CC(=O)O)NC(=O)[C@@H](C)NC(=O)[C@@H](N)Cc1ccc(O)cc1)C(=O)N[C@@H](Cc1ccccc1)C(=O)N[C@H](C(=O)N[C@@H](CC(N)=O)C(=O)N[C@@H](CO)C(=O)N[C@@H](Cc1ccc(O)cc1)C(=O)N[C@@H](CCCNC(=N)N)C(=O)N[C@@H](CCCCN)C(=O)N[C@H](C(=O)N[C@@H](CC(C)C)C(=O)NCC(=O)N[C@@H](CCC(N)=O)C(=O)N[C@@H](CC(C)C)C(=O)N[C@@H](CO)C(=O)N[C@@H](C)C(=O)N[C@@H](CCCNC(=N)N)C(=O)N[C@@H](CCCCN)C(=O)N[C@@H](CC(C)C)C(=O)N[C@@H](CC(C)C)C(=O)N[C@@H](CCC(N)=O)C(=O)N[C@@H](CC(=O)O)C(=O)N[C@H](C(=O)N[C@@H](CCSC)C(=O)N[C@@H](CO)C(=O)N[C@@H](CCCNC(=N)N)C(N)=O)[C@@H](C)CC)C(C)C)[C@@H](C)O [[D-Ala^2]-hpGRF(1-29)-NH2, D-alanine^2-human Pancreatic Growth Hormone-Releasing(1-29)-amide] was tested, and the “Milk Production” value (dairy cows; 0.4 mg/kg/day SC) was 23.9 kg/day, the “Milk Production” value (dairy cows; 0.8 mg/kg/day SC) was 23.8 kg/day and the “% increase over control” value (dairy cows; 0.4 mg/kg/day SC) was “+7.6%”. For the same molecule, the “% increase over control” value (dairy cows; 0.8 mg/kg/day SC) was “+7.2%”, the “Plasma GH” value (Growth Hormone Release; dose 0.08 μg/100 g BW SC, saline 454 ± 62) was 1118 ± 158 ng/mL and the “Plasma GH” value (Growth Hormone Release; dose 0.20 μg/100 g BW SC, saline 454 ± 62) was 2122 ± 350 ng/mL. The “Plasma GH” value (Growth Hormone Release; dose 0.50 μg/100 g BW SC, saline 454 ± 62) was 3539 ± 109 ng/mL.
“N-acetyl-L-histidine-1,D-alamine-2,L-norleucine-27-human Pancreatic Growth Hormone-Releasing (1-29)-amine [N-AcHis^1, D-Ala^2, Nle^27]” was tested, and the “% Potency” value (Growth Hormone Release; by comparison to pooled standards GRF(1-29)-NH2, limits in parenthesis) was 1574 (1112-2226) %, the “Plasma GH” value (Growth Hormone Release; dose 0.5 (unit not given), SC) was 1146 ± 143 and the “Plasma GH” value (Growth Hormone Release; dose 1.25 (unit not given), SC) was 1907 ± 603.
With “N-acetyl-L-histidine-1,D-alanine^2 -human Pancreatic Growth Hormone-Releasing(1-29)-amine [[N-Ac-His^1, D-Ala^2]-hpGRF(1-29)-NH2]” the “Plasma GH” value (Growth Hormone Release; dose 1.0 μg/100 g BW SC, saline 541 ± 78) was 1974 ± 274 ng/mL and the “Plasma GH” value (Growth Hormone Release; dose 5.0 μg/100 g BW SC, saline 541 ± 78) was 4989 ± 638 ng/mL.

Reference: patent publication US5416073A, “Growth hormone-releasing peptides and method of treating animals, therewith” (The Adminstrators of the Tulane Educational Fund, priority 1985, dated 1995)
